“Also recorded” adds a separate entry of the source. Square brackets hold non-standard residues; d marks the D form. Peptide text beside a SMILES is read from it.
Tests used:
[1] = target: T1, rat myc-B2R (bradykinin B2 receptor) (Rattus norvegicus, UniProt P25023); assay: [3H]BK binding competition assay; details: for affinity for rat B2R, in words: rat myc-B2R
T1 construct: expressed in transfected cells
T1 sequence (P25023 1-396): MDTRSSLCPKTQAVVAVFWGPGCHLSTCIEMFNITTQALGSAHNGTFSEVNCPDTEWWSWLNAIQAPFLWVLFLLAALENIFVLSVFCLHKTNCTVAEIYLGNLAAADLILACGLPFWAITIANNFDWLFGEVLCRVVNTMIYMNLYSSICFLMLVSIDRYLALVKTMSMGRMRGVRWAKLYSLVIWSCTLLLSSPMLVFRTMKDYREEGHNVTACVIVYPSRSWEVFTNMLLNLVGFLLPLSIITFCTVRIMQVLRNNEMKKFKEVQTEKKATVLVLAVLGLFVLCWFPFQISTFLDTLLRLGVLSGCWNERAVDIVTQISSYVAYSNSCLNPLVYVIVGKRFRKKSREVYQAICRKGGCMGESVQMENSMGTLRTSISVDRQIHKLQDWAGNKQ
Method: Affinity for the B2R was evaluated using a radioligand binding competition assay performed at 0°C in the presence of peptidase inhibitors that included captopril and PMSF ([Charest-Morin et al., 2014]). Briefly, the binding of 3 nM [^3H]bradykinin (Perkin Elmer Life Sciences; 90 Ci/mmol) to adherent intact Human Embryonic Kidney (HEK 293) cells stably expressing the myc-tagged rat B2R construction ([Charest-Morin et al., 2017]) was applied to construct binding competition curves for a series of unlabeled peptides.
(§1) Results are presented as means ± SEM. Radioligand binding data were fitted by non-linear regression to a one-site competition equation using a least-square method (Prism 5.0, GraphPad Software Inc., San Diego, CA, United States) and IC50 values calculated from this procedure. The same computer program was used to draw concentration-effect curves generated with the contractility assay (least square fitting of sigmoidal dose-response equation with variable slope) and to derive contractile EC50 values. Data describing the dose-response relationship of novel peptides vs. hypotension and heart rate changes, the baseline values of heart rate and mean arterial blood pressure and the effect of drugs on the hemodynamic responses to r-B K and r-BK-RR were assessed by using one-way analysis of variance (ANOVA) followed by the Dunnett’s test (repeated comparison with a common control; Prism 5.0 software).

[2] = system: GFP-tagged rabbit B2R (B2R-GFP); assay: B2R-GFP endocytosis and recycling, epifluorescence microscopy, HEK 293 cells; format: cell-based; details: 30 min; for B2R-GFP internalization with Plummer’s inhibitor, in words: Plummer’s inhibitor alone
Method: This system, based on a serum-containing culture medium, contains ACE and Arg-carboxypeptidase activities ([Bachvarov et al., 2001]; [Charest-Morin et al., 2014]). r-BK or r-BK-RR were added to 35-mm Petri dishes containing the cells with optional pre-treatment with peptidase inhibitors and the cells were observed as described after 30 min of incubation at 37°C ([Charest-Morin et al., 2014]).

anesthetized rats = assay: In vivo hemodynamics in anesthetized rats, dose-response; parameters: species or system male Sprague-Dawley rats; details: for hypotensive potency, r-BK vs r-BK-RR, in words: i.v. bolus 0.025–12.8 μg/kg; for heart rate response, in words / peptide doses giving hypotensive response significantly greater than vehicle: i.v. bolus; for heart rate response, in words: after brief bradycardic injection artifact, statistically significant only at the highest tested doses; for peptide doses giving hypotensive response significantly greater than vehicle: vs BSA-saline vehicle (Dunnett’s test)
Method: All surgical and experimental procedures were reviewed and approved by the Animal Care and Handling Committee of Laval University, in accordance with the Canadian Council on Animal Care. Experiments were performed on male Sprague-Dawley rats (300–375 g) purchased from Charles River Laboratories (St-Constant, QC, Canada). The rats were housed in a light-controlled (12:12-h light-dark cycle (lights on at 0600)) and temperature-regulated room (22 ± 1°C). Animals had free access to normal chow diet and tap water. They were allowed to acclimate to their environmental conditions for 1 week prior to being studied. At the end of the acclimation period, the rats were anesthetised with sodium pentobarbital (50 mg kg^-1, i.p., supplemented as required) and had one catheter implanted into the right jugular vein [for intravenous (i.v.) injection] and one into the left femoral artery [for direct and continuous measurement of blood pressure and heart rate as previously described ([Jean et al., 2016])]. Experiments started at least 20 min following the end of surgery in anesthetised rats.
Baseline measurements of heart rate and phasic and mean arterial blood pressure were recorded over a period of 15 min in anesthetized rats. A dose response curve was then obtained by recording changes in blood pressure and heart rate elicited by i.v. injection of peptide vehicle followed by increasing doses (0.025–12.8 μg/kg) of r-BK or r-BK-RR. Peptides were dissolved in isotonic saline (0.9% NaCl) containing 0.1% BSA to prevent the adsorption of peptide to the glassware and plastic surfaces. All i.v. injections were given as 100 μl boluses which were washed in with a further 100 μl of saline (the dead space of the catheter). Only one peptide was tested per group of rats and each injection started with saline-BSA 0.1% followed by the lowest dose of peptide. The next dose was administered once all recorded cardiovascular parameters had returned to baseline after the previous injection (usually 2–10 min). At the end of the experiments each animal was euthanized with an overdose of sodium pentobarbital (240 mg/kg, i.v.).
as §1

[3] = system: human ACE-mCherry fusion protein; assay: Competition of a fluorogenic ACE substrate by synthetic kinins (recombinant ACE-mCherry); format: biochemical; details: 15 min, 37°C
Method: The source of enzyme was whole HEK 293a cells grown in 24-well plates and transfected as described with a vector coding for the human ACE-mCherry fusion protein, an active enzyme ([Charest-Morin and Marceau, 2016]). The culture medium was removed from cell wells, which were rinsed twice with PBS. The fluorogenic substrate (final concentration 20 μM), and, optionally, a competitor (BK, r-BK, or r-BK-RR in variable concentrations, or the ACE inhibitor enalaprilat 1 μM) were added in 250 μl PBS in each well; the plates were then incubated for 15 min at 37°C. At this point, the well supernatants were transferred in Eppendorf tubes, centrifuged 30 s at 12500 rpm to remove debris and 100 μl of this fluid transferred in wells of 96-well plate (black background) to read the fluorescence (excitation 320 nm, emission 420 nm) using a TECAN Infinite® 200 PRO microplate reader. Results were expressed as the percent of the fluorescence in wells containing ACE-mCherry and the substrate without competitors. Controls included mock-transfected cells and enalaprilat-treated cells.

## N=C(N)NCCC[C@@H](N)C(=O)N[C@@H](CCCNC(=N)N)C(=O)N1CCC[C@H]1C(=O)N1CCC[C@H]1C(=O)NCC(=O)N[C@@H](Cc1ccccc1)C(=O)N[C@@H](CO)C(=O)N1CCC[C@H]1C(=O)N[C@@H](Cc1ccccc1)C(=O)N[C@@H](CCCNC(=N)N)C(=O)N[C@@H](CCCNC(=N)N)C(=O)N[C@@H](CCCNC(=N)N)C(=O)O [r-BK-RR, D-Arg^0-BK-Arg-Arg] (H-[dR]RPPGFSPFRRR-OH)
[1]; 100 nM
  competition on the binding of [3H]BK to B2R, in words: little competition
[1]; [3H]BK binding competition
  affinity for rat B2R, in words: direct micromolar affinity; also recorded: very little direct affinity for B2R
[1]; r-BK-RR, [3H]BK binding competition, rat B2R
  decrease of receptor affinity (less potent): 61 fold
[2]; 100 nM, 15 min before
  B2R-GFP internalization with Plummer’s inhibitor, in words: only a partial effect
[2]; 100 nM, both inhibitors 15 min before
  B2R-GFP internalization with enalaprilat + Plummer’s inhibitor, in words: suppress the effect of r-BK-RR
[2]; 100 nM, enalaprilat alone, 15 min before
  B2R-GFP internalization with enalaprilat, in words: suppress the effect of r-BK-RR
Anesthetized rats
  hypotensive potency, r-BK vs r-BK-RR, in words: virtually equipotent hypotensive agents
  heart rate response, in words: brief tachycardic response, statistically significant only at the highest tested doses
  peptide doses giving hypotensive response significantly greater than vehicle: ≥ 400 ng/kg
[3]; Abz-Phe-Arg-Lys(Dnp)-Pro-OH 20 μM, HEK 293a cells with ACE-mCherry, PBS, fluorescence ex 320 / em 420 nm
  competition for recombinant ACE, relative affinity, in words: only slightly less potent than the two other peptides

## N=C(N)NCCC[C@@H](N)C(=O)N[C@@H](CCCNC(=N)N)C(=O)N1CCC[C@H]1C(=O)N1CCC[C@H]1C(=O)NCC(=O)N[C@@H](Cc1ccccc1)C(=O)N[C@@H](CO)C(=O)N1CCC[C@H]1C(=O)N[C@@H](Cc1ccccc1)C(=O)N[C@@H](CCCNC(=N)N)C(=O)O [r-BK, D-Arg^0-BK] (H-[dR]RPPGFSPFR-OH)
[1]; [3H]BK binding competition
  affinity for rat B2R, in words: practically equal to that of BK
[2]; 100 nM, 37°C, serum-containing culture medium, no inhibitor
  B2R-GFP internalization, in words: the fluorescent receptor was internalized
[2]; 100 nM, 15 min before
  B2R-GFP internalization with Plummer’s inhibitor, in words: no effect
[2]; with enalaprilat and/or Plummer’s inhibitor (not influenced by any)
  proportion of cells exhibiting internalization of B2R-GFP: > 90%
Anesthetized rats
  hypotensive potency, r-BK vs r-BK-RR, in words: virtually equipotent hypotensive agents
  heart rate response, in words: brief tachycardic response, statistically significant only at the highest tested doses
  peptide doses giving hypotensive response significantly greater than vehicle: ≥ 400 ng/kg
[3]; competitor 20 μM (equal to substrate concentration), fluorescence
  inhibition of ACE substrate hydrolysis, in words: nearly complete inhibition

Source: article PMC5880945, “D-Arg^0-Bradykinin-Arg-Arg, a Latent Vasoactive Bradykinin B2 Receptor Agonist Metabolically Activated by Carboxypeptidases” (Frontiers in Pharmacology, 2018)
